Data published in patent publication US10760052B2, “Method of inhibiting tau phosphorylation” (priority 2012, dated 2020).

Tests used:
FLNA = biological target: T1, FLNA (Homo sapiens, UniProt P21333); assay: [3H]NLX competition binding to FLNA in SK-N-MC cell membranes; details: read-out: IC50-L, inhibition of [3H]NLX binding
T1 construct: validate the use of that 5-mer peptide as a surrogate for the complete molecule in the assays carried out herein; host or cells: A7 cells

[1] = test system: tau (pSer202, pThr231, pThr181); assay: ICV Aβ42 infusion mouse model: tau phosphorylation; format: in vivo; details: 10 mg/kg twice daily
Protocol: The levels of phosphorylated tau (pSer202tau, pThr231tau and pThr181tau) as well as total tau precipitated (loading controls) were assessed by Western blotting using specific antibodies directed against each of the phosphoepitopes and the anti-tau, respectively.

[2] = biological target: T2, FLNA-α7nAChR/TLR4 and Aβ42-α7nAChR complexes (Homo sapiens, UniProt P21333); assay: FLNA-α7nAChR/TLR4 and Aβ42-α7nAChR associations in AD and Aβ42-treated control lymphocytes; format: cell-based; details: 1 nM, 30 minutes
T2 construct: endogenous in cells; host or cells: lymphocytes of AD patients and control subjects
Protocol: Because lymphocytes contain α7nAChR and TLR4, whether the associations of these receptors with FLNA are increased in the lymphocytes of AD patients and whether Compound C0105 treatment ex vivo could disrupt these associations were assessed. Also assayed was the effect of Compound C0105 on Aβ42-α7nAChR complexes in AD lymphocytes and Aβ42-treated lymphocytes from age-matched control subjects.

[3] = test system: α7nAChR (Aβ42-α7nAChR interaction); assay: Aβ42 affinity for α7nAChR in SK-N-MC cells; format: binding, human
From the text: Data are means±SEM. n=11 for postmortem control tissue; n=6 for SK-N-MC cells.

IL-6, TNF-α and IL-1β = assay: ICV Aβ42 infusion mouse model: cytokine levels (fluorescence ELISA); format: in vivo
Protocol: Following centrifugation, the resultant lysate was then dilute with 500 μl (total volume 600 μl) and used as the source of cytokines.
Plates were washed 3 times with ice-cold 50 mM Tris HCl (pH 7.4) and incubated at 30° C. with 100 μl of lysate derived from the above mentioned tissues for 1 hour.
Plates were washed 3 times with ice-cold 50 mM Tris HCl (pH 7.4) and incubated at 30° C. with 0.5 μg/well un-conjugated rabbit anti-TNF-α, anti-IL-6 and anti-IL-1β for 1 hour. After two washes with 50 mM Tris HCl (pH 7.4), each well was incubated in 0.5 μg/well FITC-conjugated anti-rabbit IgG (human and mouse absorbed) for 1 hour at 30° C. Plates were washed twice with 200 μl ice-cold Tris HCl, pH 7.4 and the residual FITC signals were determined by multimode plate reader, DTX880 (Beckman). Each lysate was surveyed twice.

insulin receptor (IR) [4] = assay: Postmortem human frontal cortex: IR activation and signaling; format: cell-based; details: AD and Aβ42-treated control brain slices; 1 nM
Protocol: IR activation and signaling were initiated by incubation of approximately 10 mg of in vitro treated brain slices with either KR (basal) or KR containing 1 nM insulin at 37° C. for 30 minutes. […] Ligand stimulation was terminated by the addition of 1 ml of ice-cold Ca^2+-free K-R containing 0.5 mM EGTA and 0.1 mM EDTA. Brain slices were harvested by a brief centrifugation and were homogenized in 0.25 ml of ice-cold immunoprecipitation buffer. The homogenates were centrifuged at 1000×g for 5 minutes (4° C.) and the supernatant (post-mitochondrial fraction) is sonicated for 10 seconds on ice. […] The resultant lysates are then cleared by centrifugation at 50,000×g for 5 minutes and diluted with 0.75 ml of immunoprecipitation buffer. Protein concentrations are measured by Bradford method (Bio-Rad).
The blots were stripped and re-probed with anti-IRβ to assess the loading as appropriate.

NMDAR [5] = assay: Levels of signaling molecules associated with NMDAR (NR1) in slice cultures; format: cell-based, rat; details: 0.1 μM Aβ42
Protocol: NMDAR activation and signaling was initiated by incubation of 6 slices with either 0.3 mM Mg^2+ containing KR (LMKR; basal) or LMKR containing 10 μM NMDA and 1 μM glycine at 37° C. for 30 minutes.
Ligand stimulation was terminated by the addition of 1 ml of ice-cold Ca^2+-free K-R containing mixture of protein phosphatase inhibitors, 0.5 mM EGTA and 0.1 mM EDTA. Brain slices were harvested by a brief centrifugation and were homogenized in 0.25 ml of ice-cold immunoprecipitation buffer. The homogenates were centrifuged at 1000×g for 5 minutes (4° C.) and the supernatant (post-mitochondrial fraction) was sonicated for 10 seconds on ice.
The resultant lysates were cleared by centrifugation at 50,000×g for 5 minutes and diluted with 0.75 ml of immunoprecipitation buffer. Protein concentrations were measured by Bradford method (Bio-Rad).
To determine the association of NMDARs with PSD-95, as well as NMDAR signaling, the levels of NMDAR subunits, PSD-95 and NMDAR-associated signaling molecules were measured in anti-NR1 immunoprecipitates. In these studies, brain slice lysates (100 μg) were immunoprecipitated overnight at 4° C. with 2 μg of immobilized anti-NR1 onto covalently conjugated protein A-agarose beads (Pierce-ENDOGEN). […]

TLR4-FLNA complex = biological target: T3, TLR4-FLNA complex (Mus musculus, UniProt Q8BTM8); assay: ICV Aβ42 infusion mouse model: FLNA association with TLR4; format: in vivo; details: 10 mg/kg twice daily; prefrontal cortex and hippocampus
T3 construct: from tissue; host or cells: synaptosomes from prefrontal cortex and hippocampus of treated E129 mice
Protocol: . The anti-FLNA immunocomplexes were obtained by centrifugation, washed and dissociated using antigen elution buffer. […] The levels of FLNA-associated α7nAChRs and TLR4s were assessed by Western blotting and the blot stripped and re-probed for FLNA for immunoprecipitation/loading control.

NMDAR [6] = assay: Postmortem human frontal cortex: NMDAR signaling and association with PSD-95; format: cell-based; details: AD brain slices, 1 nM, one hour incubation
Protocol: NMDAR activation and signaling were initiated by incubation of approximately 10 mg of in vitro treated brain slices with either LMKR (basal) or LMKR containing 10 μM NMDA and 1 μM glycine at 37° C. for 30 minutes. […] Ligand stimulation was terminated by the addition of 1 ml of ice-cold Ca^2+-free K-R containing 0.5 mM EGTA and 0.1 mM EDTA.
Brain slices were harvested by a brief centrifugation and were homogenized in 0.25 ml of ice-cold immunoprecipitation buffer. The homogenates were centrifuged at 1000×g for 5 minutes (4° C.) and the supernatant (post-mitochondrial fraction) is sonicated for 10 seconds on ice. […] The resultant lysates are then cleared by centrifugation at 50,000×g for 5 minutes and diluted with 0.75 ml of immunoprecipitation buffer. Protein concentrations are measured by Bradford method (Bio-Rad).
To determine the NMDAR signaling and the NMDAR complexes association with PSD-95 [also known as Disks large homolog 4 (DLH4)], the levels of NMDAR subunits, PSD-95 and NMDAR-associated signaling molecules were measured in anti-NR1 immunoprecipitates.
In these studies, brain slice lysates (200 μg) were immunoprecipitated overnight (about 18 hours) at 4° C. with 2 μg of immobilized anti-NR1 onto covalently conjugated protein A-agarose beads (Pierce-ENDOGEN). […]

insulin receptor (IR) [7] = assay: ICV Aβ42 infusion mouse model: IR signaling; format: in vivo; details: 10 mg/kg twice daily
Protocol: IR activation and signaling was initiated by incubation of tissue with either K-R (basal) or K—R containing 1 nM insulin at 37° C. for 30 minutes. […] Ligand stimulation was terminated by the addition of 1 ml of ice-cold Ca^2+-free K-R containing mixture of protein phosphatase inhibitors, 0.5 mM EGTA and 0.1 mM EDTA.
Tissues were briefly centrifuged and homogenized in 0.25 ml of ice-cold immunoprecipitation buffer. The homogenates were centrifuged at 1000×g for 5 minutes (4° C.) and the supernatant (post-mitochondrial fraction) was sonicated for 10 seconds on ice. […] The resultant lysates were then cleared by centrifugation at 50,000×g for 5 minutes and diluted with 0.75 ml of immunoprecipitation buffer. Protein concentrations were measured by Bradford method (Bio-Rad).
In these studies, brain tissue lysates (100 μg) were immunoprecipitated overnight (about 18 hours) at 4° C. with 2 μg of immobilized anti-IRβ onto covalently conjugated protein A-agarose beads (Pierce-ENDOGEN).
Anti-IRβ immunoprecipitates were incubated with 75 μl antigen elution buffer (Pierce-ENDOGEN) and 2% SDS for 2 minutes on ice, centrifuged to remove antibody-protein A-agarose complexes and neutralized immediately with 10 μl 1.5 M Tris buffer, pH 8.8 followed by addition of 65 μl 2× PAGE sample buffer and boiled for 5 minutes. […]

α7nAChR-FLNA complex [8] = biological target: T4, α7nAChR-FLNA complex (Homo sapiens, UniProt P21333); assay: Postmortem human frontal cortex: α7nAChR-FLNA association; format: cell-based; details: AD and Aβ42-treated control tissue; 0.1 or 1 nM
T4 construct: from tissue; host or cells: postmortem frontal cortex slices / synaptosomes (AD and control subjects)
Protocol: Postmortem frontal cortex tissues were gradually thawed (from −80° C. to −20° C.) and were sliced using a chilled McIlwain tissue chopper (200 μm×200 μm×3 mm). […] Following two additional washes with 1 ml of ice-cold K-R, brain slices were suspended in 1 ml of K-R.
Incubation continued for 1 hour in the dark to minimize light destruction of the test agents. […] Reaction was terminated by the addition of 1.5 ml of ice-cold Ca^2+-free K-R. Tissue slices were harvested by a brief centrifugation and used as the tissue sources for various assays.

α7nAChR-FLNA complex [9] = biological target: T5, α7nAChR-FLNA complex (Rattus norvegicus, UniProt A0A8I5ZV49); assay: Aβ42-induced α7nAChR-FLNA association in rat frontal cortical synaptosomes (co-immunoprecipitation/Western blot); format: cell-based
T5 construct: from tissue; host or cells: rat frontal cortex synaptosomes
From the text: The α7nAChR-FLNA complexes in the solubilized synaptosomes were immunoprecipitated with immobilized anti-FLNA and the α7nAChR and FLNA levels in the anti-FLNA immunoprecipitates determined by Western blotting (FIG. 2A) and quantified by densitometry (FIG. 2B). n=3. […] The letter designation “M” that accompanies many of the “C-series” compounds is omitted from FIG. 2, the remaining figures and most discussions of the figures and compounds hereinafter for ease in expression. Structural formulas of the compounds used in this and the other figures are provided hereinafter. […]

[10] = test system: tau (pSerine202, pThreonine231, pThreonine181); assay: LPS-induced tau phosphorylation in postmortem human hippocampal slices; format: cell-based; details: 1 nM compound, 1 hour
Protocol: The three phosphoepitopes of tau were detected in immunoprecipitates using specific antibodies using Western blots (WB).
The slices are carefully separated in 10 ml of oxygenated ice-cold dissection medium with two pairs of fine forceps and gentle shaking.
The reaction was terminated by diluting with 1.5 ml of ice-cold 1 mM EDTA-containing Ca^2+-free Kreb's-Ringer and centrifuged for 10 minutes at 15,000×g (4° C.).
After removal of the supernatant, the slices were homogenized to prepare post-mitochondrial (P2) fraction.
The anti-tau immunocomplexes were enriched by incubation with 50 μl of protein A/G-conjugated agarose beads at 4° C. and centrifugation.

[11] = test system: tau (pSer202, pThr231, pThr181); assay: Tau phosphorylation in organotypic frontocortical slice cultures; format: cell-based, rat; details: C0105 0.1, 1, 10 nM; C0114 1, 10 nM; simultaneous with Aβ42
Protocol: On the day of study, medium was removed, the brain slices rinsed and incubated in 0.1% FBS-containing medium for 4 hours at 36° C. in 5% CO2.
The levels of phosphorylated tau (pSer202tau, pThr231tau and pThr181tau) as well as total tau precipitated (loading controls) are assessed by Western blotting using specific antibodies directed against each of the phosphoepitopes and the anti-tau, respectively.

T5 sequence (A0A8I5ZV49 entry or part of it, one chain of several): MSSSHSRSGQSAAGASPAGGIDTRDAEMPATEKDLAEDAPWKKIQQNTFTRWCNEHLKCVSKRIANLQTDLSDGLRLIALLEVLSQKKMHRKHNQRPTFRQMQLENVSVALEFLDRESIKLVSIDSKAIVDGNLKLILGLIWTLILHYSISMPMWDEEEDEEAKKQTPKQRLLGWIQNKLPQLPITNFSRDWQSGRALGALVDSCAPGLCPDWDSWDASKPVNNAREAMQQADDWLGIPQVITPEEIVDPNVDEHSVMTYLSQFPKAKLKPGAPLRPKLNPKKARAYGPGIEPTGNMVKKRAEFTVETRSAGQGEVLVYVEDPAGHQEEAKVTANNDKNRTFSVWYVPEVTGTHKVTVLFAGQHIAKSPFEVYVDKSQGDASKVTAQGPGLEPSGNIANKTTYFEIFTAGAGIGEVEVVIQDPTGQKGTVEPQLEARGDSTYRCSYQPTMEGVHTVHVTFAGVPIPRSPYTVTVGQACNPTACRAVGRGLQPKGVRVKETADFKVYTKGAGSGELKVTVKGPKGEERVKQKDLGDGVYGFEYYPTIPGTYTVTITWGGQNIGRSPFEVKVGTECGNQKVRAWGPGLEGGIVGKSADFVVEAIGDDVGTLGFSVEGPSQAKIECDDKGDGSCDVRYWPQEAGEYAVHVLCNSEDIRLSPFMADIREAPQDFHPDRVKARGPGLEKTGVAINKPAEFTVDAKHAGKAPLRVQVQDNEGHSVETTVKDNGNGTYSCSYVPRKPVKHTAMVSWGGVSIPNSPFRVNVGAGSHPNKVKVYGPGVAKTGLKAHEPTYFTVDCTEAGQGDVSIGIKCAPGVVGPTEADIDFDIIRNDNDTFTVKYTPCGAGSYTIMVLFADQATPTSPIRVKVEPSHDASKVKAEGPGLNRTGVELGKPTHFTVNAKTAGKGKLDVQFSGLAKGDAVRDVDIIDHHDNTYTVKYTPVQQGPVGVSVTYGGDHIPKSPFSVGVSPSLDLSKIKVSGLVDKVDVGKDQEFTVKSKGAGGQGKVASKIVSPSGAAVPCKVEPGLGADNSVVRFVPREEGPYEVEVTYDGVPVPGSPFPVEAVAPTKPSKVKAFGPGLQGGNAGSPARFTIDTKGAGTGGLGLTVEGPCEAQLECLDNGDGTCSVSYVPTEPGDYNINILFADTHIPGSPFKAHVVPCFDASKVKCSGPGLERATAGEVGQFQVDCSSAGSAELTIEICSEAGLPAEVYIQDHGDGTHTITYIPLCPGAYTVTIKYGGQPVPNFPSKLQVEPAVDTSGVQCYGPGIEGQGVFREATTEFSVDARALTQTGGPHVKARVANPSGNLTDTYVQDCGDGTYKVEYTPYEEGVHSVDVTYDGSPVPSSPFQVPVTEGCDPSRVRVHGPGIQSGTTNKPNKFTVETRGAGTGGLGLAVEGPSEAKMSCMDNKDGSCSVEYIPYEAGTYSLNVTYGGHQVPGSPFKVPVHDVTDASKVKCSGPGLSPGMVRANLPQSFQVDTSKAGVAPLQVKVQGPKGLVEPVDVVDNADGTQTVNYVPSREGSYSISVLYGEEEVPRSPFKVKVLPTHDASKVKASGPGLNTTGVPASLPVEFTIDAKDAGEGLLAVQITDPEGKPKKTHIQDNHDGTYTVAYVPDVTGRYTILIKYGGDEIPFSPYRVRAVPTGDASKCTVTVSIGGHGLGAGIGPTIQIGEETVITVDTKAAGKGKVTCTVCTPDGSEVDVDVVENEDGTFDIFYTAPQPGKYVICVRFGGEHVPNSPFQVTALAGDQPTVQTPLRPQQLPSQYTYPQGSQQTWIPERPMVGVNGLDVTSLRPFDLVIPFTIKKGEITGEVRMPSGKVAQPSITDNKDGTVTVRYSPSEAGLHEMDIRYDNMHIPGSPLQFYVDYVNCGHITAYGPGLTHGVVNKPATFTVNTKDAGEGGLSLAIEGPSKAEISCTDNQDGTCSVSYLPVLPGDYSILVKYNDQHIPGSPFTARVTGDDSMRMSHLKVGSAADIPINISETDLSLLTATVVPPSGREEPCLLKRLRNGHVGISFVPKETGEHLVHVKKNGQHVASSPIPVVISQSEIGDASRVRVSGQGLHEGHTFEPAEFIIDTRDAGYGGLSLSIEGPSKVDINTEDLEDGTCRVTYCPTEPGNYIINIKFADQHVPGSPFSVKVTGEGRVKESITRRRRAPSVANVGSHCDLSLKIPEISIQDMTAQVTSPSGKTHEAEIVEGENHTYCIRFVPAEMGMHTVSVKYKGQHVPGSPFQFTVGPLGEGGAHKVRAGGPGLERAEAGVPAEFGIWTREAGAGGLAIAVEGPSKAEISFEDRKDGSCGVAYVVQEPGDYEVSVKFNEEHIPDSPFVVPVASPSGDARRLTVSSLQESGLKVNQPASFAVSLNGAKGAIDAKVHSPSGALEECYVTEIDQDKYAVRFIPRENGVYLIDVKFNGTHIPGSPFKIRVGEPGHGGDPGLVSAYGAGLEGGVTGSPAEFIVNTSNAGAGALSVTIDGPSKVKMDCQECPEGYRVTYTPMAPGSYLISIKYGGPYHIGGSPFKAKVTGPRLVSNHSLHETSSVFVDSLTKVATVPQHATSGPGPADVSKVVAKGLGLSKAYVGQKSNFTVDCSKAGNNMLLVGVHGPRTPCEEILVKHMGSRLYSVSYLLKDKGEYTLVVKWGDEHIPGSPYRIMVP

CN1CCC2(CC1)NCC(=O)N2Cc1ccccc1 [Compound C0105]
IC50 (FLNA): 0.111 nM | Tau phosphorylation at three sites [1]: suppressed tau phosphorylation at all three phosphorylation sites | FLNA associations with α7nAChR and TLR4 in lymphocytes [2]: significantly reduced | Reduction of Aβ42 binding affinity for α7nAChR ([3]; fresh SK-N-MC cells, n=6): 10,000 fold | Kd ([3]; read-out: Aβ42 binding affinity for α7nAChR with Compound C0105, SK-N-MC cells): 1 nM | Aβ42-induced IL-6 production (IL-6, TNF-α and IL-1β; 10 mg/kg twice daily): completely abolished | Suppression of IL-1β level (IL-6, TNF-α and IL-1β; 10 mg/kg twice daily): 80% | Suppression of TNF-α level (IL-6, TNF-α and IL-1β; 10 mg/kg twice daily): 86% | Decrease of levels of IL-6, TNF-α and IL-1 (IL-6, TNF-α and IL-1β; mice receiving C0105): 80-100% | IR signaling assemblies (insulin receptor (IR) [4]): Normalization of receptor function | Levels of six signaling molecules associated with NR1 after NMDA and glycine (NMDAR [5]): fully restored function | Aβ42-induced increase in FLNA association with TLR4 (TLR4-FLNA complex): reduced Aβ42-induced increases in FLNA associations with both α7nAChR and TLR4 | NMDAR signaling impairment (six measures) (NMDAR [6]): normalized all six measures | IR signaling (IRβ phosphorylation, IRS-1 association) (insulin receptor (IR) [7]): restored | FLNA association with α7nAChR (α7nAChR-FLNA complex [8]): reduces Aβ42-induced FLNA association with α7nAChR and TLR4 | α7nAChR-FLNA association (ratio α7nAChR/FLNA) (α7nAChR-FLNA complex [9]; 1 or 10 nM compound, simultaneously or 10 minutes prior to Aβ42 (0.1 μM)): statistically different from Aβ42 alone | α7nAChR-FLNA association (α7nAChR-FLNA complex [9]; simultaneous administration with Aβ42): markedly reduced this coupling | LPS-induced tau phosphorylation [10]: reduces LPS-induced tau phosphorylation | Aβ42-induced tau phosphorylation [11]: reduced tau phosphorylation at all three phosphorylation sites
